{"source": "patent US9969698B2", "about": "“Quinoxalinyl-piperazinamide methods of use” (REXAHN PHARMACEUTICALS, INC., priority 2015, dated 2018)", "key": {"[1]": {"test": "Human safety and tolerability, dose-ranging study", "format": "in vivo", "settings": "oral capsules", "description": "In a dose-ranging study, the pharmacokinetics (PK), safety and tolerability of RX-5902 at various oral doses were evaluated. Subjects with advanced or metastatic solid tumors were administered capsules containing RX-5902 at daily doses of 25-775 mg once weekly, 250-300 mg three times a week, 150-300 mg five times a week, or 300-350 mg seven times a week of RX-5902 for up to 6 dosing cycles. Each cycle consisting of 1-5 doses of RX-5902 per week for 3 weeks followed by 1 week of rest, or 5-7 doses of RX-5902 per week for 4 weeks without any rest per 4-week cycle. All but one subject had fasted from food for at least 8 hours before administration. One subject received 300 mg RX-5902 in fed state. Plasma concentrations were measured on Days 1 and 15, for 48 hrs, using a validated LC-MS/MS assay, and noncompartmental pharmacokinetic parameters were calculated using Phoenix WinNonlin, Version 6.4."}, "[2]": {"system": "human renal tumor xenografts (Caki-1)", "format": "in vivo", "settings": "oral; for TGI: 5 days on/2 days off, Day 21", "from_the_text": "(§1) The efficacy of RX-5902 in human cancer xenograft mouse models is examined. Female nude mice (nu/nu, Harlan or CRL: NU(NCr)-Foxn1^nu, Charles River), 9-10 weeks old, with a body weight (BW) range of 15-30 g on day 1 of the study, are fed ad libitum water (reverse osmosis, 1 ppm C1), and NIH 31 Modified and Irradiated Lab Diet® consisting of 18.0% crude protein, 5.0% crude fat, and 5.0% crude fiber. The mice are housed on irradiated Enrich-o'Cobs™ Laboratory Animal Bedding in static microisolators on a 12-hour light cycle at 20-22° C. (68-72° F.) and 40-60% humidity. The study complies with the recommendations of the Guide for, Care and Use of Laboratory Animals with respect to restraint, husbandry, surgical procedures, feed and fluid regulation, and veterinary care.\n(§2) Various human tumor cell lines (e.g., HCT116, HT29, H460, H69, Caki-1, CaSki, MiaPaca2, BxPC3 and Colo 205 cells [ATCC, Manassas, Va., USA]) are cultured according to ATCC's instruction. The tumor cells are cultured in tissue culture flasks in a humidified incubator at 37° C., in an atmosphere of 5% CO2 and 95% air.\n(§3) The cells are harvested during exponential growth and re-suspended with phosphate buffered saline. Each test animal receives a subcutaneous (s.c.) injection of 5×10^6 tumor cells into the right flank and tumor growth is monitored as the average tumor size approaches the target range of 80-300 mm^3. When tumors reach the target size mice are randomized into several groups (n=10-20) and treatment with various regimens of RX-5902 or a positive (e.g., gemcitabine) or negative control (e.g.; vehicle, saline) is initiated. Tumors and body weights are measured regularly until the study is terminated.\n(§4) Tumors are measured in two dimensions using calipers, and volume is calculated using the formula:\n(§5) [formula] where w=width and 1=length, in mm, of the tumor. Tumor weight may be estimated with the assumption that 1 mg is equivalent to 1 mm^3 of tumor volume.\n(§6) Treatment begins on Day 1 in eight groups of mice (n=10-20/group) with established subcutaneous tumors of a particular cell line. Each group is treated according to the study design. All doses are adjusted per body weight. Animals in each group are divided for efficacy and sampling purposes. There are also groups designated to vehicle control and no treatment for sampling purposes.\n[…] […] Percent tumor growth inhibition (% TGI) is defined as the difference between the MTV of the designated control group (vehicle administration) and the MTV of the drug-treated group, expressed as a percentage of the MTV of the control group: % TGI=[1−(MTVdrug treated/MTVcontrol)]×100 The data set for TGI analysis includes all animals in a group, except those that die due to treatment-related (TR) or non-treatment-related (NTR) causes. An agent that produces at least 60% TGI in this assay is considered to be potentially therapeutically active.\nAnimals are monitored individually for tumor growth until Day 71. […] The time to endpoint (TTE) for each mouse is calculated with the following equation:\n[formula] where b is the intercept and m is the slope of the line obtained by linear regression of a log-transformed tumor growth data set. […] In instances in which the log-transformed calculated TTE precedes the day prior to reaching endpoint or exceeds the day of reaching tumor volume endpoint, a linear interpolation is performed to approximate TTE. Any animal determined to have died from treatment-related (TR) causes is assigned a TTE value equal to the day of death. […]"}, "[3]": {"system": "human pancreas tumor xenografts (MiaPaca-2)", "test": "Pancreatic cancer xenograft model", "format": "in vivo, mice", "settings": "oral, 5ON/2OFF", "from_the_text": "as §1, with “The study complies with the recommendations of the Guide for, Care and Use of Laboratory Animals with respect to restraint, husbandry, surgical procedures, feed and fluid regulation, and veterinary care.” left out\n(§7) The cells are harvested during exponential growth and re-suspended with phosphate buffered saline. Each test animal receives a subcutaneous (s.c.) injection of 5×10^6 tumor cells into the right flank and tumor growth is monitored as the average tumor size approaches the target range of 80-300 mm^3. […] Tumors and body weights are measured regularly until the study is terminated.\n(§8) Tumors are measured in two dimensions using calipers, and volume is calculated using the formula: […]\nTreatment efficacy is determined using data from Day 15. The MTV (n), the median tumor volume for the number of animals, n, on Day 15, is determined for each group. […]\nAnimals are monitored individually for tumor growth until Day 71. […] The time to endpoint (TTE) for each mouse is calculated with the following equation: […]"}, "[4]": {"system": "human colorectal tumor xenografts (Colo205)", "test": "Colorectal cancer xenograft model", "format": "in vivo, mice", "settings": "oral", "from_the_text": "as §1\nVarious human tumor cell lines (e.g., HCT116, HT29, H460, H69, Caki-1, CaSki, MiaPaca2, BxPC3 and Colo 205 cells [ATCC, Manassas, Va., USA]) are cultured according to ATCC's instruction. […]\nas §7, §8\nTreatment efficacy is determined using data from Day 15. The MTV (n), the median tumor volume for the number of animals, n, on Day 15, is determined for each group. Percent tumor growth inhibition (% TGI) is defined as the difference between the MTV of the designated control group (vehicle administration) and the MTV of the drug-treated group, expressed as a percentage of the MTV of the control group: % TGI=[1−(MTVdrug treated/MTVcontrol)]×100 The data set for TGI analysis includes all animals in a group, except those that die due to treatment-related (TR) or non-treatment-related (NTR) causes. […]\nAnimals are monitored individually for tumor growth until Day 71. […]"}, "[5]": {"system": "human breast tumor xenografts (MDA-MB-231)", "test": "Breast cancer xenograft model", "format": "in vivo, mice", "settings": "for TGI % (first value of the cell) / TGI % (second value of the cell): oral", "from_the_text": "as §1, §2, §3, §4, §5, §6\nTreatment efficacy is determined using data from Day 15. The MTV (n), the median tumor volume for the number of animals, n, on Day 15, is determined for each group. Percent tumor growth inhibition (% TGI) is defined as the difference between the MTV of the designated control group (vehicle administration) and the MTV of the drug-treated group, expressed as a percentage of the MTV of the control group: % TGI=[1−(MTVdrug treated/MTVcontrol)]×100 The data set for TGI analysis includes all animals in a group, except those that die due to treatment-related (TR) or non-treatment-related (NTR) causes. An agent that produces at least 60% TGI in this assay is considered to be potentially therapeutically active.\nAnimals are monitored individually for tumor growth until Day 71. The study protocol specifies a tumor growth delay assay based on the median time to endpoint (TTE) in a treated group versus the control group. Each animal is euthanized for tumor progression (TP) when its tumor reaches the 2000 mm^3 volume endpoint. The time to endpoint (TTE) for each mouse is calculated with the following equation:\n[formula] where b is the intercept and m is the slope of the line obtained by linear regression of a log-transformed tumor growth data set. The data set is comprised of the first observation that exceeds the study endpoint volume and the three consecutive observations that immediately precede the attainment of the endpoint volume. […] In instances in which the log-transformed calculated TTE precedes the day prior to reaching endpoint or exceeds the day of reaching tumor volume endpoint, a linear interpolation is performed to approximate TTE. […]"}}, "note": "Like-named read-outs stand apart in the source and are kept apart here. Marks after values point to notes of the source that are not given here."}
{"smiles": "COc1cc(OC)cc(N2CCN(C(=O)Nc3nc4cc(F)ccc4nc3OC)CC2)c1", "note": "[RX-5902, 4-(3,5-dimethoxyphenyl)-N-(7-fluoro-3-methoxyquinoxalin-2-yl)piperazine-1-carboxamide]", "values": [{"measurement": "most frequently reported adverse events", "setting": "[1]; 25-775 mg", "result": "mild nausea, vomiting and fatigue"}, {"measurement": "tolerability", "setting": "[1]; at the tested dose levels (25-775 mg)", "result": "well tolerated"}, {"measurement": "TGI", "setting": "[2]; 50 mg/kg daily", "result": 80, "unit": "%"}, {"measurement": "complete tumor regressions", "setting": "[2]; 70 mg/kg daily", "result": "1/10"}, {"measurement": "partial tumor regressions", "setting": "[2]; 70 mg/kg daily", "result": "6/10"}, {"measurement": "TGI", "setting": "[2]; 70 mg/kg daily", "result": 96, "unit": "%"}, {"measurement": "overall survival of the animals", "setting": "[2]; 50 and 70 mg/kg daily, both doses (P<0.0001)", "result": "extended the overall survival"}, {"measurement": "TGD %", "setting": "[3]; 50 mg/kg", "result": 83, "unit": "%^"}, {"measurement": "TGD %", "setting": "[3]; 70 mg/kg", "result": 339, "unit": "%^"}, {"measurement": "TGI %", "setting": "[4]; 160 mg/kg QWK", "result": 0, "unit": "%*"}, {"measurement": "TGI %", "setting": "[4]; 320 mg/kg QWK", "result": 13, "unit": "%*"}, {"measurement": "TGI %", "setting": "[4]; 600 mg/kg QWK", "result": 33, "unit": "%*"}, {"measurement": "TGI % (first value of the cell)", "setting": "[5]; 160 mg/kg QWK", "result": 44, "unit": "%"}, {"measurement": "TGI % (second value of the cell)", "setting": "[5]; 160 mg/kg QWK", "result": 39, "unit": "%"}, {"measurement": "TGI % (first value of the cell)", "setting": "[5]; 320 mg/kg QWK", "result": 65, "unit": "%"}, {"measurement": "TGI % (second value of the cell)", "setting": "[5]; 320 mg/kg QWK", "result": 82, "unit": "%"}, {"measurement": "TGI % (first value of the cell)", "setting": "[5]; 600 mg/kg QWK", "result": 83, "unit": "%"}, {"measurement": "TGI % (second value of the cell)", "setting": "[5]; 600 mg/kg QWK", "result": 165, "unit": "%"}, {"measurement": "survival in treated mice", "setting": "[5]; oral, 160, 320 and 600 mg/kg weekly", "result": "extending the survival"}]}
